Assay results reported in patent US9309242B2, “Substituted pyrido[2,3-b]pyrazines as FGFR kinase inhibitors” (priority 2011, dated 2016).
Read-outs that look alike come from different tables or passages of the source.

Legend:
FGFR4 (h) = FGFR4 (h) (Homo sapiens, UniProt P22455); test: FGFR4 (enzymatic assay), TR-FRET; type: biochemical; conditions: FGFR 4 pIC50, enzymatic assay
[1] = molecular target: T1, Ba/F3-FGFR3-transfected cells (Homo sapiens, UniProt P22607); test: Ba/F3-FGFR3 (minus IL3) cellular proliferation assay, Alamar Blue; type: cell-based
T1 construct: BAF3-FGFR3 (MIN IL3) pIC50; other: minus IL3
T1 sequence (P22607 whole entry, change not shown): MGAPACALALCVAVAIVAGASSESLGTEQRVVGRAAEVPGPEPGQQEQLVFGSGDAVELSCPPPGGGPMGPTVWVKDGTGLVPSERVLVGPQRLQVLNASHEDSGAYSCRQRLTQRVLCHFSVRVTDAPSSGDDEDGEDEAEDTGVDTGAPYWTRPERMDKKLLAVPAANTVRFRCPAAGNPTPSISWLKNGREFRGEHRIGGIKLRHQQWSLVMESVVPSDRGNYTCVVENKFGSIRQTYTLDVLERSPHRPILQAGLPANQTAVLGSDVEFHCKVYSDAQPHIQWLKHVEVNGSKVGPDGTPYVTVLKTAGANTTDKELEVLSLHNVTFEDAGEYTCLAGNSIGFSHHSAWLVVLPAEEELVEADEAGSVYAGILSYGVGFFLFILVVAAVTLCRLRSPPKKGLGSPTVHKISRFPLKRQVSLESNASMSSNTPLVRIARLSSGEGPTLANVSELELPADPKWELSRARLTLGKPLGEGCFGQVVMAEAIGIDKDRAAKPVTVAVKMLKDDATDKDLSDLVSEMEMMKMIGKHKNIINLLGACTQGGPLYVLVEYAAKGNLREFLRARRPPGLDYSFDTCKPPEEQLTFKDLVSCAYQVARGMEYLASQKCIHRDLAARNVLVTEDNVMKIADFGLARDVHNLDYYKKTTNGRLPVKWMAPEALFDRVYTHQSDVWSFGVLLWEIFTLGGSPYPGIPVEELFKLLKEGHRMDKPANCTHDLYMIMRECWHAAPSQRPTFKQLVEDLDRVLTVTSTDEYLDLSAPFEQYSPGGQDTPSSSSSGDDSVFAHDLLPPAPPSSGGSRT
Summary of the method: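 Ba/F3 cells transfected with FGFR3, 20000/well in phenol red-free RPMI-1640 with 10% FBS, exposed to compound for 24 h at 37 °C, 5% CO2. Alamar Blue (resazurin) added for 4 h more; fluorescence read at ex 540/em 590 nm. Counterscreen run the same way with 10 ng/ml murine IL3.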

KDR (h) = KDR (h) (Homo sapiens, UniProt P35968); test: KDR (VEGFR2) (enzymatic assay), TR-FRET; type: biochemical; conditions: read-out: VEGFR 2 (KDR) pIC50 (converted)
KDR (h), sequence (P35968 20-1356): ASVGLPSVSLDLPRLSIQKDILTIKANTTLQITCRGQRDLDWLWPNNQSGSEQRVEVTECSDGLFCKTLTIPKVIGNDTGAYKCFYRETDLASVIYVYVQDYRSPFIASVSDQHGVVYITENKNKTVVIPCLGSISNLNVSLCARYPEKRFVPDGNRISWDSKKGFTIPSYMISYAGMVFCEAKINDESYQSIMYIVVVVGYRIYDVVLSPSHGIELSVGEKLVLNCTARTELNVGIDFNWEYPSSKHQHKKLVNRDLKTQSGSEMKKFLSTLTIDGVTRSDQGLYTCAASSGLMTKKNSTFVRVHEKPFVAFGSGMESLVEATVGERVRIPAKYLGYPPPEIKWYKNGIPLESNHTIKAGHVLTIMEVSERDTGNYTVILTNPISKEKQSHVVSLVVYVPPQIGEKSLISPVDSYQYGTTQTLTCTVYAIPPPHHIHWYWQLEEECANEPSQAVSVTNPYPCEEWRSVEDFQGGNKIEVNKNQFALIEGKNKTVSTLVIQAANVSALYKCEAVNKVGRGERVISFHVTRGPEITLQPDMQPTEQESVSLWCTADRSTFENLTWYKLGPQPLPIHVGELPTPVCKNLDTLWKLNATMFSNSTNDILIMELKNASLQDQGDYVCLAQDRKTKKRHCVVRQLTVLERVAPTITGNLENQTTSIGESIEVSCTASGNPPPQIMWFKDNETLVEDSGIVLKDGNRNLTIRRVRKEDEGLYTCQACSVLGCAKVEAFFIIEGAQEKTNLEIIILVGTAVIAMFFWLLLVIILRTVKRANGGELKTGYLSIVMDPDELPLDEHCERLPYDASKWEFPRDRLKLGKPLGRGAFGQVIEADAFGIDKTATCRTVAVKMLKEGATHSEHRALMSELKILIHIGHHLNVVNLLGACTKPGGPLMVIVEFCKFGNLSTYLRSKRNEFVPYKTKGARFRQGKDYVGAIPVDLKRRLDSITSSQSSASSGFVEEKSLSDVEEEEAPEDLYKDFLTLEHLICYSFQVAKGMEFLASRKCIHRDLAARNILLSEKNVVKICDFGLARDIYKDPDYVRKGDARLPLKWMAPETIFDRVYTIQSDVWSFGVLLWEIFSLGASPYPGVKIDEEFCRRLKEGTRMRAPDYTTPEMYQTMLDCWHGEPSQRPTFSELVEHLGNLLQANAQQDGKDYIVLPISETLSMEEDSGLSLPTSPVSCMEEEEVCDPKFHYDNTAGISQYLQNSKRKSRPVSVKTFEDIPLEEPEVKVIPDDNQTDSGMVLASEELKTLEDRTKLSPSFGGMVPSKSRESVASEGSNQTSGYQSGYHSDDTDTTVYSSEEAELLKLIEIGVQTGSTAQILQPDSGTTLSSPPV
Summary of the method: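 3 μM ATP, 500 nM Btn-Flt3 substrate, 150 ng/ml kinase; HEPES pH 7.5 with MnCl2, DTT, vanadate, Triton; 1% DMSO. 120 min RT. Stop: EDTA + Eu-anti-P-Tyr + SA-XL-665, 60 min RT. Readout TR-FRET ex340/em620, 655 nm, RFU.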

FGFR2 (h) = FGFR2 (h) (Homo sapiens, UniProt P21802); test: FGFR2 (enzymatic assay), TR-FRET; type: biochemical; conditions: enzymatic assay, read-out: FGFR 2 pIC50 (converted)
Summary of the method: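 Phosphorylation of 500 nM Btn-Flt3 by human FGFR2 (150 ng/ml) is measured at 0.4 μM ATP. The buffer is 50 mM HEPES pH 7.5 containing 6 mM MnCl2, 1 mM DTT, 0.1 mM Na3VO4 and 0.01% Triton-X-100, and compound is tested at 1% DMSO final.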

[2] = molecular target: Ba/F3-FGFR4-transfected cells (Homo sapiens, UniProt P22455); test: Ba/F3-FGFR4 cellular proliferation assay, Alamar Blue; type: cell-based
Ba/F3-FGFR4-transfected cells, sequence (P22455 whole entry, change not shown): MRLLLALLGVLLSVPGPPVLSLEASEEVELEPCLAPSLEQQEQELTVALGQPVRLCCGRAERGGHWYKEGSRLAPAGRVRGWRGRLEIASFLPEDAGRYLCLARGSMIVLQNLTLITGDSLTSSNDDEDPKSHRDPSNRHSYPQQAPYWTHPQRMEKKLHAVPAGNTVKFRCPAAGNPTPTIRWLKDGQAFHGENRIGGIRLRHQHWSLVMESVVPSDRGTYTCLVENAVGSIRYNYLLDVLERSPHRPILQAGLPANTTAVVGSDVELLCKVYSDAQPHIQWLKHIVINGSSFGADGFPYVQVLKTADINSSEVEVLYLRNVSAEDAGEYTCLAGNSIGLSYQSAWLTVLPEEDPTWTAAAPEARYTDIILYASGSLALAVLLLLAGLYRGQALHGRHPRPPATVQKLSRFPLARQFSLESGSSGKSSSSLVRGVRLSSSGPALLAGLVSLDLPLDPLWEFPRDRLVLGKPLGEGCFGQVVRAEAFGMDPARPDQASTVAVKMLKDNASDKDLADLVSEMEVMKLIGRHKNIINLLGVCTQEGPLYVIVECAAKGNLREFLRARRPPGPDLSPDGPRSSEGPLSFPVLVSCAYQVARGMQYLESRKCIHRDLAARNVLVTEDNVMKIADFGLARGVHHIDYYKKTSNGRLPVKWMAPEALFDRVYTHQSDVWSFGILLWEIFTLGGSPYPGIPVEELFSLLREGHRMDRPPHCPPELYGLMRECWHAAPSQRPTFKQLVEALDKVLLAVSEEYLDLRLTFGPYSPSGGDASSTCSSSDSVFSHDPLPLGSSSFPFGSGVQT
Summary of the method: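 Fluorescence read-out (ex. 540 nm, em. 590 nm) of resazurin-based Alamar Blue after 4 h, following 24 h compound exposure of Ba/F3-FGFR4-transfected cells (20000/well) at 37° C, 5% CO2.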

[3] = test system: Ba/F3-KDR-transfected cells; test: Ba/F3-KDR (plus IL3) cellular proliferation assay, counterscreen with 10 ng/ml murine IL3; type: cell-based; conditions: plus IL3 (10 ng/ml murine IL3, counterscreen); read-out: BAF3-KDR (PLUS IL3) pIC50 (converted)
Summary of the method: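 Read-out: resazurin-based Alamar Blue fluorescence (ex. 540, em. 590 nm) after 4 h. Before that, cells were incubated with compound for 24 h at 37° C. The counterscreen ran identically but with IL3 supplemented.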

[4] = molecular target: T2, Ba/F3-FGFR1-transfected cells (Homo sapiens, UniProt P11362); test: Ba/F3-FGFR1 (minus IL3) cellular proliferation assay, Alamar Blue; type: cell-based
T2 construct: BAF3-FGFR1 (MIN IL3) pIC50; other: minus IL3
T2 sequence (P11362 whole entry, change not shown): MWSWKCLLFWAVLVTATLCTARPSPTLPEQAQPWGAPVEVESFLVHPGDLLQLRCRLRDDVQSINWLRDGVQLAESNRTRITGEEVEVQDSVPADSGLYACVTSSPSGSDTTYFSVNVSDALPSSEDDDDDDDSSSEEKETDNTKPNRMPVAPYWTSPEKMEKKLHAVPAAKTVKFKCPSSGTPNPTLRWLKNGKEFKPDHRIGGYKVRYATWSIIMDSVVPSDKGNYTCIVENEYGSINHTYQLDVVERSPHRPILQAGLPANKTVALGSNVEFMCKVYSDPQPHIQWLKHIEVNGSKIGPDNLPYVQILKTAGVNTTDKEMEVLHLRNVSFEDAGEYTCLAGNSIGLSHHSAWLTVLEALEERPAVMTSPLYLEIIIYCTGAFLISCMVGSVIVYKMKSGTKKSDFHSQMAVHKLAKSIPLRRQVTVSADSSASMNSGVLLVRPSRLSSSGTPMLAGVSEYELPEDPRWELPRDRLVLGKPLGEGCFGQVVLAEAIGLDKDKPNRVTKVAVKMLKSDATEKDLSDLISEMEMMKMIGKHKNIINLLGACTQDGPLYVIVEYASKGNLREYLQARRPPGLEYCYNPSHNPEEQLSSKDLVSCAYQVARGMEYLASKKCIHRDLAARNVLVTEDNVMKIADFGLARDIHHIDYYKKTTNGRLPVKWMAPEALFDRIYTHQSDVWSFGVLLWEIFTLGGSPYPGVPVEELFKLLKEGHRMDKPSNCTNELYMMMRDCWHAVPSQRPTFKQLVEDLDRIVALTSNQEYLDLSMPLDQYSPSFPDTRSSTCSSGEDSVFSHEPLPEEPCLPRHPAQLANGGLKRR
Summary of the method: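 Ba/F3-FGFR1 cells (20000 per well) were exposed to compound for 24 h at 37 °C in RPMI-1640 with 10% FBS. Alamar Blue (resazurin) was then added for 4 h, and fluorescence was read at ex 540/em 590 nm.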

[5] = test system: Ba/F3-FGFR1-transfected cells; test: Ba/F3-FGFR1 (plus IL3) cellular proliferation assay, counterscreen with 10 ng/ml murine IL3; type: cell-based; conditions: plus IL3 (10 ng/ml murine IL3, counterscreen); read-out: BAF3-FGFR1 (PLUS IL3) pIC50 (converted)
Summary of the method: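 Proliferation read-out: resazurin-based Alamar Blue fluorescence (540/590 nm) after 4 h, following 24 h compound treatment of 20000 Ba/F3-FGFR1 cells per well in 10% FBS RPMI at 37° C. IL3 counterscreen used the same protocol plus 10 ng/ml murine IL3.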

FGFR3 (h) = FGFR3 (h) (Homo sapiens, UniProt P22607); test: FGFR3 (enzymatic assay), TR-FRET; type: biochemical; conditions: read-out: FGFR 3 pIC50 (converted)
Description: Time-Resolved Fluorescence Resonance Energy Transfer (TR-FRET) signal (ex340 nm.

[6] = average values if tested multiple times

FGFR4 (h), sequence (P22455 22-802): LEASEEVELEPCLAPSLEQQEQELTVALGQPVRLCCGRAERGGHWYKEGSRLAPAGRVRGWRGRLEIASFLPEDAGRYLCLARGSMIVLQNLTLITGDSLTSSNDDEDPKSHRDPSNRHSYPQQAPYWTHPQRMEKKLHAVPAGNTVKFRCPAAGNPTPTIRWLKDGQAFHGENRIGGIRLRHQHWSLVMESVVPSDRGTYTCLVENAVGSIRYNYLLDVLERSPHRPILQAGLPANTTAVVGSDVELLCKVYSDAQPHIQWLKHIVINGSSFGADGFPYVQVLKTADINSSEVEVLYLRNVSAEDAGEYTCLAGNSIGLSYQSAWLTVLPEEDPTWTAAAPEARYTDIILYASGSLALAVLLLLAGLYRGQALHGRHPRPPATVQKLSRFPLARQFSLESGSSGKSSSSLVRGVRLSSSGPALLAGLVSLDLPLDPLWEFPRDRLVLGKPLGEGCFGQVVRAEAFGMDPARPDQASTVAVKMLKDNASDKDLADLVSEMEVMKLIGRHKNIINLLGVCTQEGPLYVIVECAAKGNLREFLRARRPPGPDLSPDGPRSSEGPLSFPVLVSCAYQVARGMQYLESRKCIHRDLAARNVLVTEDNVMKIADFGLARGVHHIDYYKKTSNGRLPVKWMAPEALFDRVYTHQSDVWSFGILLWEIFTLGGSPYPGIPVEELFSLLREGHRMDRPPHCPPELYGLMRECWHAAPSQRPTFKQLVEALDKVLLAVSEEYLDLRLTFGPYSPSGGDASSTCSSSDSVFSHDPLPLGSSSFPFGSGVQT

Structure (SMILES) | IC50 (FGFR4 (h); [6]) [nM] | BAF3-FGFR3 (MIN IL3) pIC50 [1] | IC50 (KDR (h); [6]) [nM] | IC50 (FGFR2 (h); [6]) [nM] | BAF3-FGFR4 pIC50 [2] | IC50 [3] [nM] | BAF3-FGFR1 (MIN IL3) pIC50 [4] | IC50 [5] [nM] | IC50 (FGFR3 (h); [6]) [nM] | IC50 (FGFR4 (h)) [nM] | IC50 (KDR (h)) [nM] | IC50 (FGFR2 (h)) [nM] | IC50 (FGFR3 (h)) [nM]
COCC(O)CN(c1cc(OC)cc(OC)c1)c1ccc2ncc(-c3cnn(C)c3)nc2n1 (stereo not drawn) [Compound 7] | 6.31 | 7.1 | 200 | 3.98 | 6.53 | > 10000 | 7.0 | > 10000 | 1.58 | – | – | – | –
CNCCN(c1ccc2ncc(-c3cnn(C)c3)nc2n1)c1c(Cl)ccc(OC)c1Cl [Compound 83] | 933 | ~5.66 | > 1000 | 49 | <5 | > 10000 | 5.36 | > 10000 | 105 | – | – | – | –
COc1cc(O)cc(N(Cc2ncc[nH]2)c2ccc3ncc(-c4cnn(C)c4)nc3n2)c1F [Compound 95] | 0.537 | ~8.46 | 2.75 | 0.955 | 8.03 | > 10000 | 8.83 | 7410 | 0.447 | – | – | – | –
COc1cc(OC)cc(N(CC#Cc2ncccc2OC)c2ccc3ncc(-c4cnn(C)c4)nc3n2)c1 [Compound 26] | 63.1 | ~5.55 | 501 | 63.1 | <5 | > 10000 | 6.8 | > 10000 | 39.8 | – | – | – | –
COc1cc(OC)c(F)c(N(Cc2nc3c([nH]2)CCNC3)c2ccc3ncc(-c4cnn(C)c4)nc3n2)c1 [Compound 104] | 3.47 | ~6.01 | 26.3 | 3.24 | 5.74 | > 10000 | 6.70 | > 10000 | 3.09 | – | – | – | –
COCC(O)CN(c1ccc2ncc(-c3cnn(C)c3)nc2n1)c1cc(OC)cc(OC)c1F (single isomer, unassigned) [Compound 58] | 2.14 | 7.43 | 34.7 | 1.95 | 7.09 | > 10000 | 7.51 | > 10000 | 1.26 | – | – | – | –
COc1cc(OC)c(F)c(/N=c2\ccc3ncc(-c4cnn(C)c4)nc3n2CC2CCC(=O)N2)c1F (stereo not drawn) [Compound 193] | 0.955 | ~8.06 | 7.24 | 0.794 | 7.00 | > 10000 | 8.01 | > 10000 | 0.417 | – | – | – | –
COc1cc(OC)cc(N(CCCN2CCCC2=O)c2ccc3ncc(-c4cnn(C)c4)nc3n2)c1 [Compound 134] | – | ~6.64 | – | – | 5.99 | > 10000 | 6.43 | > 10000 | – | 11.7 | 35.5 | 3.09 | 3.8
COc1cc(OC)c(F)c(N(CCCN2CCCC2=O)c2ccc3ncc(-c4cnn(C)c4)nc3n2)c1F [Compound 56] | 2.29 | 7.87 | 7.76 | 2.82 | 7.41 | > 10000 | 7.53 | > 10000 | 2.75 | – | – | – | –
